We go through two compounds from patent US12465614B2, “Budesonide 21-phosphate salts and pharmaceutical compositions containing the same” (GENETIC S.P.A., priority 2020, dated 2025).

Common to all, as to type: in vivo
Assay [1] concerns OVA-sensitized mice. Put plainly: Bronchial relaxation to salbutamol, isolated bronchi of OVA-sensitized mice (Experimental Groups I). The conditions noted are these: 1 mg/Kg i.p.; rings precontracted with carbachol; vs OVA group; FIG. 10B.
Assay [2] has as its system OVA-sensitized mice. To be noted: mouse, in vivo.
Assay [3] concerns mice with OVA-induced allergic asthma. Put plainly: Lung hyperreactivity/Penh function, whole body plethysmography, intra-nasal FB, F, B (Experimental Groups II). To be noted: i.n. daily 2 weeks, all tested doses: FB 0.3, 1.0, 3.0 nmol/animal, vs untreated OVA group.
The test system is the same in assay [4]. In words: BAL fluid cell counts (Experimental Groups II). To be noted: for total leukocytes in BAL fluid: vs untreated OVA group. On the procedure:
(§1) Male Balb/c SPF mice (25*2 g, 6-week-old) were purchased from the animal house facilities at the São Paulo School of Medicine (Federal University of São Paulo, Brazil). They were group-housed in a temperature-controlled room at 22° C. with a 12/12-hour light/dark cycle and allowed free access to food and water. The study is in agreement with the Ethical Principles for Animal Research established by the Brazilian College for Animal Experimentation (COBEA). According to the internal laboratory rules, euthanasia is performed if severe distress related to the test agents developed during the experiment. […] The compounds were dissolved in DMSO (Sigma Chemical Co., St. Louis, MO) at concentrations at which the determined dose per animal results from the intraperitoneal administration of 100 μl of solution (1:10 DMSO) and intra-nasal (i.n.) administration of 10 μl/animal (5 μl/nostril) of the solutions. Mice were sensitized with two subcutaneous injections of 0.4 ml of OVA/Al(OH)3, with an interval of 7 days (Sham animals received the Al(OH)3 suspension in PBS with no OVA). Seven days after the second sensitization (i.e., 3rd week), the animals were nebulized twice a week with the 1% OVA solution (Sham and untreated OVA groups were nebulized with PBS) during 20 minutes for the next 2 weeks. Sixty minutes before the challenges (OVA nebulization) and daily during the next 4 weeks, mice were intra-nasally treated (10 μl/animal as 5 μl/nostril) with the respective compounds/vehicle. After Penh evaluation, the mice were anesthetized with inhaled isofluorane (5% v/v in O2) and blood samples were collected from the descending abdominal aorta. The mice were then euthanized by exsanguination (blood samples were collected from each animal for leukocyte cell counting), and bronchoalveolar lavage (BAL) was performed by exposing and cannulating the trachea with a polyethylene tube (1 mm outer diameter) connected to a syringe. The lungs were washed by flushing 300 μL of heparin-containing PBS solution (20 Ul/mL). The retrieved BAL lavage aliquots were obtained, and the same procedure was repeated four additional times. The samples were submitted to centrifugation (1000 g for 10 min) and the cell pellet was resuspended in 200 μL of PBS solution. Total cell counts were determined using a Neubauer chamber, and differential counting was carried out in cytospin (Fanem Mod 2400; São Paulo, Brazil) preparations stained with May-Grünwald dye. Leukocytes were classified based on normal morphological criteria.

Another assay deals with IgE. Put plainly: Plasma IgE levels in OVA-sensitized mice, ELISA (Experimental Groups I). The conditions noted are these: 1 mg/Kg i.p.; vs OVA group; FIG. 10 panel C. The protocol:
Female Balb/c (8-week-old, Charles River, Calco, Italy) were housed in the animal care facility of the Department of Pharmacy of the University of Naples, Italy in a controlled environment (temperature 21±2° C. and humidity 60±10%) and provided with standard rodent chow and water. All animals were allowed to acclimate for four days prior to experiments and were subjected to 12 h light−12 h dark schedule. Experiments were conducted during the light phase. The experimental procedures were approved by the Italian Ministry according to International and National law and policies (EU Directive 2010/63/EU and Italian DL 26/2014 for animal experiments). […] The compounds were dissolved in DMSO (Sigma Chemical Co., St. Louis, MO) at concentrations at which the determined dose per animal results from the intraperitoneal administration of 100 μl of solution (1:10 DMSO) and intra-nasal (i.n.) administration of 10 μl/animal (5 μl/nostril) of the solutions. […] Plasma levels of IgE were measured as index of sensitization. […] Total IgE levels were measured by means of ELISA using matched antibody pairs (BD Biosciences Pharmingen San Jose, CA).
(An ELISA detects its analyte on a solid surface through an enzyme-linked reagent.)

The test system of assay [5] is mice with OVA-induced allergic asthma. Put plainly: Circulating leukocyte cell counts (Experimental Groups II). The protocol: as §1
[6] abbreviates: i.n., all treatments: FB 0.3, 1.0, 3.0 nmol/animal, F and B 3.0 nmol/animal.

“Also recorded” adds a separate entry of the source.

Turning to `COc1ccc(CC(C)NCC(O)c2ccc(O)c(NC=O)c2)cc1` (stereo not shown) [F, N-[2-hydroxy-5-[1-hydroxy-2-[[2-(p-methoxyphenyl)-2-propy]-amino]-ethyl]-phenyl]-formamide, reference compound], the “bronchial relaxation to salbutamol” value in the assay with OVA-sensitized mice [1] was “did not ameliorate the lack of bronchial response to salbutamol”.
For the compound “Budesonide 21-phosphate formoterol salt [FB]”, the “bronchial hyperreactivity (increased response of isolated bronchi to carbachol)” value in the assay on OVA-sensitized mice [2] is recorded as “Significant reduction of the bronchial hyperreactivity”. Further, the “area under the Penh-metacholine concentration curve (AUC)” value in assay [3] (B 3.0 nmol/animal) is given as “significantly reduced Penh at all the MCh doses tested; also recorded: abolished”. In assay [3] (F and B 3.0 nmol/animal), the “Penh maximal response Emax to inhaled metacholine” value is given as “Significant reduction of the maximal response Emax; also recorded: abolished”. Moreover, the “total leukocytes in BAL fluid” value in assay [4] (0.3 nmol/animal i.n.) and in assay [4] (3 nmol/animal i.n.) was “significantly reduced” each time. The “OVA-induced increase of BAL macrophages” value in assay [4] (3 nmol/animal i.n.) was “abolished the OVA-induced increase of BAL macrophages”. The “eosinophils in BAL samples” value in assay [4] (setting [6]) is “significantly controlled”. Moreover, in the assay on IgE, the “OVA induced increase of IgE plasma levels” value is listed as “significantly reduced OVA induced increase of IgE plasma levels”. Also, the “bronchial relaxation to salbutamol” value in the assay with OVA-sensitized mice [1] is reported as “significantly increased bronchial relaxation”. Further, the circulating macrophages result in assay [5] (0.3 nmol/animal i.n.) is on record as “potent lowering effect”; in assay [5] (i.n., FB all tested doses (0.3, 1.0, 3.0 nmol/animal), B and F 3 nmol/animal), “significantly reduced the number of macrophages; also recorded: reduced the number of these cells to values lower than those observed in the control animals”. Moreover, the “total leukocytes in blood samples” value in assay [5] (3 nmol/animal i.n., vs untreated OVA group) was “significantly reduced; also recorded: almost abolished”. Besides, the circulating lymphocytes entry in assay [5] (3 nmol/day i.n., vs untreated allergic animals) is on record as “lower number of circulating cells than the untreated allergic animals”. For the same compound, the “circulating eosinophils vs control Sham animals” value in assay [5] (highest dose (3 nmol/animal i.n.)) is on record as “even lower than in the control Sham animals”. In addition, the circulating eosinophils result in assay [5] (setting [6]) is “decreased by FB treatment at all the tested doses”.
